“And” between values parts separate entries of the source, which are not always exact repeats. Identical values can stand only once. Like-named read-outs stand apart in the source and are kept apart here.
Key:
guinea pig eyes = assay: Toxicity test of intravitreally administered amphiregulin (guinea pigs); format: in vivo
Procedure: Methods and Material: Two to three-week old guinea pigs were divided into four groups:
animals that received an intravitreal administration of amphiregulin (dose: 10 ng in 5 μl) into one eye and an intravitreal administration of vehicle into the contralateral eye (n=4),
animals that received an intravitreal administration of amphiregulin (dose: 10 ng in 5 μl) into both eyes (n=4),
an animal that received intravitreal administration of amphiregulin (dose: 10 ng in 5 μl) into one eye with the contralateral eye left untreated (n=1), and
animals with both eyes left intact (n=2).
All animals were treated in accordance with the ARVO (association for Research in Vision and Ophthalmology) Statement for the Use of Animals in Ophthalmic and Vision Research and the EC Directive 86/609/EEC for animal experiments. The animals were housed at a constant temperature (22±1° C.) and in a light-controlled environment (lights on from 7 am to 7 pm) with ad libitum access to food and water.
All animals with injections received two intravitreal injections at an interval of ten days.
At each time point, the eyes were inspected for signs of toxicity. Ten days after the second injection, the animals were sacrificed by an overdose of anesthetics. Ocular biometry was performed at baseline, prior to each injection, and prior to the sacrifice of animals. The sonographic ocular biometry was performed using Aviso, The Ultrasound Platform (Quantel Medical, France) under general anesthesia, on the follow-up days 15, 25, 35 and prior the sacrifice on day 45.
After the sacrifice, the eyes of the animals were removed, post-fixed overnight in 4% paraformaldehyde, and embedded in optimal cutting temperature compound, cryosectioned and immunostained against glial activation marker (glial fibrillary acidic protein), microglial cell marker (lba-1), native guinea pig amphiregulin, and injected amphiregulin; or they were embedded in paraffin, sectioned and stained with hematoxylin and eosin for general histologic examination and histomorphometric retinal thickness measurements. In addition, the tissue was stained for apoptotic cell death detection applying the TUNEL method.

bovine RPE cell [1] = conditions: bovine RPE cells after incubation with growth factor; cited from earlier work
bovine RPE cell [2] = conditions: bovine RPE cells; cited from earlier work
[3] = system: eye of patient with geographic atrophy; format: in vivo, human; conditions: for foveolar zone thickness upon optical coherence tomography: 69 μm at baseline
Source text: Optical coherence tomography images of the fundus signs were unchanged. • On the 7th day after the injection, the eye appeared to be untouched, the conjunctival injection had subsided. Visual acuity had improved from 0.03 before the injection to 0.1. […] Upon optical coherence tomography, the foveolar zone increased in thickness from 69 μm at baseline to 71 μm at seven days after the injection, and to 73 μm two weeks later (FIGS. 3a, b).

[4] = system: eyes of AMD patients (geographic atrophy); assay: Series of seven AMD patients treated with intravitreal EGF; format: in vivo, human
Source text: A series of seven patients were consecutively treated. […] The patients underwent weekly to two-weekly ophthalmological follow-up examinations. Three patients (patients #1, 2, and 3) received a repeated intravitreal injection after an interval of three to four weeks.

adult rabbits' eyes = assay: Toxicity test of intravitreally administered EGF (rabbits); format: in vivo, rabbit; conditions: for Intraocular pressure (IOP): injected right eye (OD), 100 ng EGF intravitreal
Procedure: The injections were performed in the upper right quadrant of the eyes in a distance of 3-4 mm from the limbus. At baseline of the study, and at specific dates after the injection the animals were examined using photography of the external eye and anterior and posterior segment of the eye, tonometry, optical coherence tomography (OCT) of the posterior fundus, and fundus photography. Four weeks after a third injection, the animals were sacrificed and the globes were histomorphometrically examined.
After sacrificing the animals, the eyes were enucleated, immediately fixed in a solution of 1% glutaraldehyde and 4% formaldehyde, and kept in that solution for seven days at room temperature. The sagittal, vertical and horizontal globe diameter were subsequently measured. A central segment with a thickness of about 8 mm and running through the optic nerve head and the pupil was cut out of the fixed globes, dehydrated in alcohol, imbedded in paraffin, sectioned for light microscopy with a slide thickness of 4-6 μm, and stained with hematoxylin eosin.
The cell number in the three retinal layers containing cell nuclei was counted. The slides for apoptotic cell death were additionally stained using the TUNEL (terminal deoxynucleotidyl transferase dUTP nick end labeling) technique.

ARPE-19 cell line [5] = assay: RPE cell proliferation (scanning spectrophotometer); format: cell-based, human; conditions: dose-dependent; EGF 0.1, 10, 100 μg/L; EGF antibody 0.01, 1.0, 10 mg/L; PBS control
Procedure: (§1) Materials and Methods: The human ARPE-19 cell line was cultured in a standardized culture medium and incubated at 37° C. under 5% CO2. […] We examined the RPE cell proliferation using of a scanning spectrophotometer. In a second step, we examined the cell migration by a scratch assay.

ARPE-19 cell line [6] = assay: RPE cell migration (scratch assay); format: cell-based, human; conditions: dose-dependent; EGF 0.1, 10, 100 μg/L; EGF antibody 0.01, 1.0, 10 mg/L; PBS control
Procedure: as §1

EGFR = EGFR signaling via the PI3K/Akt pathway in RPE culture; format: cell-based; conditions: addition of EGF
RPE D407 cells = conditions: through both PI3K and ERK/MAPK pathways; cited from earlier work
[7] = system: EGF-EGFR-MAPK signal transduction pathway; conditions: human RPE cells in culture; concentration-dependent manner; cited from earlier work
[8] = injected eyes vs eyes injected with PBS or untouched eyes
[9] = 0.75 μg EGF intravitreal, one line per patient (1-7)
[10] = after the repeated intravitreal injections

Amphiregulin
animal weight (guinea pig eyes; four groups, 10 ng in 5 μl intravitreal, two injections at ten days interval): did not differ in their weight at any time point analyzed
TUNEL positive cell numbers (guinea pig eyes; [8]): No significant increase
microglial infiltration (guinea pig eyes; [8]): No significant increase
retinal gliosis (guinea pig eyes; [8]): No significant increase
intraocular inflammatory or toxic effect (guinea pig eyes; repeatedly intravitreally applied, guinea pigs (summary)): did not result in an intraocular inflammatory or toxic effect

acidic fibroblast growth factor [aFGF]
RPE cell migration (bovine RPE cell [1]): significantly enhanced
RPE cell DNA synthesis (bovine RPE cell [2]): stimulated

basic fibroblast growth factor [bFGF]
RPE cell migration (bovine RPE cell [1]): significantly enhanced
RPE cell DNA synthesis (bovine RPE cell [2]): stimulated

epidermal growth factor [EGF]
subjective vision ([3]; 7th day after the injection): marked improvement in vision
Visual acuity ([3]; 7th day after the injection, 0.03 before the injection): 0.1
light differential sensitivity in the central zone (computer perimetry) ([3]; after injection, central four measurement points, 11.3 dB before): 24.8 dB per measurement point
Intraocular Pressure ([3]; human, in vivo): unchanged within normal limits
conjunctival injection ([3]; human, in vivo): had subsided
finding on the surface of the eye ([3]; human, in vivo): mixed moderate conjunctival injection
pathological reactions of the anterior segment of the eye ([3]; human, in vivo): no pathological reactions
foveolar zone thickness upon optical coherence tomography ([3]; seven days after the injection): 71 μm
central visual acuity ([3]; third day after injection): unchanged
optical coherence tomography images of the fundus ([3]; third day after injection): unchanged
peripheral vision ([3]; third day after injection): remained unchanged
subjective vision (metamorphopsias) ([3]; third day after injection): the distortions and curvatures of objects (metamorphopsias) disappeared
foveolar zone thickness upon optical coherence tomography ([3]; two weeks later): 73 μm
Visual Acuity (Decimal) at last examination ([4]; 0.75 μg EGF in 50 μl intravitreal, one line per patient (1-7), follow-up one to seven weeks): 0.09 and 0.03 and 0.06 and 0.1 (2×) and 0.08 and 0.05
Intraocular Pressure [4, 9]: 17 mmHg and 16 mmHg
Quality of vision [4, 9]: Improved
Improvement in ETDRS letters ([4]; 0.75 μg EGF intravitreal, one line per patient (1-7), last examination vs before injection): 3 ETDRS letters and 8 ETDRS letters and 9 ETDRS letters and 26 ETDRS letters and 6 ETDRS letters and 11 ETDRS letters and 0 ETDRS letters
side effects ([4]; besides conjunctival vessel dilatation or circumscribed subconjunctival hemorrhage at the site of the injection): no other side effects were noted
intraocular pressure after injection, upper bound in all eyes ([4]; none of the eyes beyond this value): ≤ 21 mmHg
patients with improvement in measured visual acuity ([4]; out of seven patients, follow-up one week to seven weeks): six showed an improvement in their measured visual acuity
visual function and macular morphology ([4]; patients with geographic atrophy, intravitreal application (summary of Examples 1 and 2)): improvement in visual function and macular morphology
intraocular tolerability ([4]; patients, intravitreal application (summary statement)): well tolerated intraocularly without signs of intraocular inflammation or toxicity
cells in the anterior chamber fluid or vitreous cavity (slit lamp-based biomicroscopy) ([4]; seven patients): In none of the eyes
central visual field (perimetry) ([4]; seven patients): also improved
hemorrhages or other newly developed pathologies in the retina ([4]; seven patients): none of the eyes revealed hemorrhages or other newly developed pathologies in the retina
signs of intraocular inflammation, lens opacification, optic media clarity, intraocular pressure change ([4]; seven patients): no signs of intraocular inflammation, lens opacification, changes in the clarity of the optic media, or any significant change in intraocular pressure
thickness of the tissue in the foveolar region (fundus examination, OCT) ([4]; seven patients): tendency of an increase
change in intraocular pressure (IOP) as measured by tonometry (adult rabbits' eyes; [10]): No significant change
change in retinal thickness as measured by OCT (adult rabbits' eyes; [10]): No significant change
Intraocular pressure (IOP) (adult rabbits' eyes; 5 Dec. 2018): 6 mmHg
Intraocular pressure (IOP) (adult rabbits' eyes; 29 Dec. 2018): 8 mmHg
cell count of the retinal layers (histomorphometry) (adult rabbits' eyes; injected vs contralateral eyes, posterior pole, midpoint, equator, ora serrata region, all P-values>0.20): did not differ significantly
apoptotic cells in TUNEL staining (adult rabbits' eyes; rabbit eyes): neither in the right eyes or in the left eyes, apoptotic cells were detected
intravital examinations of the external eye and the anterior segment (toxicity, cataract) (adult rabbits' eyes; rabbits, repeated intravitreal injections): did not reveal any sign of toxicity or development of cataract
intraocular inflammatory or toxic effect (adult rabbits' eyes; repeatedly intravitreally applied, rabbits (summary)): did not result in an intraocular inflammatory or toxic effect
ARPE-19 cell proliferation (ARPE-19 cell line [5]): increased with higher concentrations
ARPE-19 cell migration (ARPE-19 cell line [6]): increased with higher concentrations
EGFR signaling via the PI3K/Akt pathway (EGFR): caused an increase
RPE cell migration (bovine RPE cell [1]): significantly enhanced
RPE cell DNA synthesis (bovine RPE cell [2]): stimulated
survival of RPE D407 cells (RPE D407 cells): stimulated survival of RPE D407 cells
EGF-EGFR-MAPK signal transduction pathway induction [7]: induces the EGF-EGFR-MAPK (mitogen-activated protein kinase) signal transduction pathway

insulin-like growth factor-1 [IGF-1]
RPE cell migration (bovine RPE cell [1]): significantly enhanced

platelet-derived growth factor [PDGF]
RPE cell migration (bovine RPE cell [1]): significantly enhanced
RPE cell DNA synthesis (bovine RPE cell [2]): stimulated

Source: patent publication US20230145643A1, “AGENTS FOR USE IN THE THERAPEUTIC OR PROPHYLACTIC TREATMENT OF RETINAL PIGMENT EPITHELIUM ASSOCIATED DISEASES” (priority 2020, published 2023)
